Laboratory results reported in BindingDB's records for doi:10.1124/jpet.102.044826 (Taisho Pharmaceutical, 2003).
pIC50: −log10 of the molar value.

Key:
[1] = target: T1, Alpha-1A adrenergic receptor (Rattus norvegicus, UniProt P43140)
T1 sequence (P43140 whole entry): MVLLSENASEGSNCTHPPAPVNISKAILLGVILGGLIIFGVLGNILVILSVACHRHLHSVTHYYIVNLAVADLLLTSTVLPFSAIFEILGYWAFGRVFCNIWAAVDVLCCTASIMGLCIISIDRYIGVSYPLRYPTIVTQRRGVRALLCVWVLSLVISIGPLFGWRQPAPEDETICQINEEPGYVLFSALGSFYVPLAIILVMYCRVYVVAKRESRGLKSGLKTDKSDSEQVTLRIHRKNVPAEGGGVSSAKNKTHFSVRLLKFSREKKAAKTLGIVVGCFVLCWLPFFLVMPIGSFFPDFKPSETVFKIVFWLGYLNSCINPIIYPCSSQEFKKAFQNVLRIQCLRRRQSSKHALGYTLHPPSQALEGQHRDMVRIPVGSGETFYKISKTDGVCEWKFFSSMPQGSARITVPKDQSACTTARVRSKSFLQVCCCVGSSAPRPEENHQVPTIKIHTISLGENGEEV

[2] = target: T2, Alpha-2C adrenergic receptor (Homo sapiens, UniProt P18825)
T2 sequence (P18825 whole entry): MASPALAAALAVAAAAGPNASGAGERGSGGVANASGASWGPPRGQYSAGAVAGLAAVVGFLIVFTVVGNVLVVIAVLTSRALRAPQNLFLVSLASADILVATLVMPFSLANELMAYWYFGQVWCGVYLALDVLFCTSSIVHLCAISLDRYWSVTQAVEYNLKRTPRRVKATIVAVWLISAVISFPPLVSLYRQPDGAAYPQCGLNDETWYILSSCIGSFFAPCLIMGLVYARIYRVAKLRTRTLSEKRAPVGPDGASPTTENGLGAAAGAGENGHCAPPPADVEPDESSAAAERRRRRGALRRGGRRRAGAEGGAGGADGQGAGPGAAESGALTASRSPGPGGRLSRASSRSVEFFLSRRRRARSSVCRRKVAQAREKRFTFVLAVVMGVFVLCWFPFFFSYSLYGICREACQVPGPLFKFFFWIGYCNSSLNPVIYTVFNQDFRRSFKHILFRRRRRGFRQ

In the case of COc1ccc2ccccc2c1CCCCN1CCN(C[C@H](c2ccc(F)cc2)N2CCN(C(C)C)CC2)CC1 [MCL0129], the pIC50 [1] was 6.20 and the pIC50 [2] was 6.00.
